Calls of active or inactive are those of the source.
Legend:
[1] = THP-1 cell cytotoxicity, dose response, cytotoxicity control for non-replicating M. tuberculosis project (AID 489025); assay type: functional
[2] = molecular target: T1, Trace amine-associated receptor 1 (Homo sapiens, UniProt Q96RJ0); assay: Fluorescence-based cell-based high throughput dose response assay to identify agonists of the human trace amine associated receptor 1 (TAAR1).; assay type: functional
T1 sequence (Q96RJ0 whole entry): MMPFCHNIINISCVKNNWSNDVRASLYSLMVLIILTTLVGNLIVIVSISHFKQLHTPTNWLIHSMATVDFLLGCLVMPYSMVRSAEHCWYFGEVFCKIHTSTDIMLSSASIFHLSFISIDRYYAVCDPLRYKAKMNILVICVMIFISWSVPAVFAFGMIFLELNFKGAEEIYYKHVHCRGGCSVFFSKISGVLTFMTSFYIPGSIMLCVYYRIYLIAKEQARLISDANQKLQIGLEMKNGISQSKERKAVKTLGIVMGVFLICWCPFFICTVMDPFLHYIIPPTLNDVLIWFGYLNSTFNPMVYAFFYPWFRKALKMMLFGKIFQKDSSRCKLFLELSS

cells [3] = assay type: functional, cell-based
[4] = molecular target: T1, Trace amine-associated receptor 1; assay: Counterscreen for agonists of the human trace amine associated receptor 1 (hTAAR1): Fluorescence-based cell-based high throughput dose response assay to identify hTAAR1 agonist that also desensitize TAAR1 receptor response.; assay type: functional
cells [5] = assay type: functional, cell-based; remark: listed apart in the source
Mu-type opioid receptor = Mu-type opioid receptor (Homo sapiens, UniProt P35372); assay type: functional, cell-based;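 note: U2OS cells with beta-arrestin recruitment to OPRM1 by beta-gal complementation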
[6] = molecular target: 5-hydroxytryptamine receptor 2A (Mus musculus, UniProt P35363); assay type: functional, cell-based;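 note: CHO-K1 cells with tagged receptor and beta-arrestin; agonist potency measured as compound-induced activation of the receptor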
[7] = Luminescence Cell-Based Dose Confirmation HTS to Identify Activators of 5'UTR Stem-Loop Driven Alpha-Synuclein mRNA Translation in H4 Neuroglioblastoma Cells. [Related pubchem assays: 1829 (Project Summary), 1814 (Primary HTS)]; assay type: functional
Genome polyprotein = Genome polyprotein (dengue virus type 2, UniProt P29990); assay: Dengue-2 NS5 methyltransferase inhibitors, primary screen, biochemical, confirmation dose response (AID 588689); assay type: functional
[8] = Luminescence Cell-Based Dose Response HTS to Identify Activators of Luciferase Translation or Activity in H4 […] Cells. [Related pubchem assays: 1829 (Project Summary), 1814 (Primary HTS)]; assay type: functional
H4 = assay: Luminescence Cell-Based Dose Response HTS to Identify Activators of 5'UTR Stem-Loop Driven Prion Protein mRNA Translation in H4 Neuroglioblastoma Cells. [Related pubchem assays: 1829 (Project Summary), 1814 (Primary HTS)]; assay type: functional; settings: Homo sapiens
[9] = molecular target: Photoreceptor-specific nuclear receptor (Homo sapiens, UniProt Q9Y5X4); assay type: functional, cell-based;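 note: CHO-S cells with Gal4-NCOR and VP16-NR2E3 two-hybrid luciferase reporter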
[10] = molecular target: Glucose-6-phosphate 1-dehydrogenase (Homo sapiens, UniProt P11413); assay: human G6PD enzyme inhibitors, dose response, selectivity assay for P. falciparum G6PD inhibitor project, biochemical, fluorescence (AID 504792); assay type: functional
[11] = molecular target: DNA (cytosine-5)-methyltransferase 1 (Homo sapiens, UniProt P26358); assay: DNMT1 methyltransferase inhibitors, confirmation, biochemical, fluorescent molecular beacon (AID 602386); assay type: functional
[12] = molecular target: T2, Carboxy-terminal domain RNA polymerase II polypeptide A small phosphatase 1 (Homo sapiens, UniProt Q9GZU7); assay: inhibitors of CTDSP1, concentration-response testing, biochemical assay, absorbance-based, actives from ultra-high-throughput screening (AID 540297); assay type: functional
T2 sequence (Q9GZU7 whole entry): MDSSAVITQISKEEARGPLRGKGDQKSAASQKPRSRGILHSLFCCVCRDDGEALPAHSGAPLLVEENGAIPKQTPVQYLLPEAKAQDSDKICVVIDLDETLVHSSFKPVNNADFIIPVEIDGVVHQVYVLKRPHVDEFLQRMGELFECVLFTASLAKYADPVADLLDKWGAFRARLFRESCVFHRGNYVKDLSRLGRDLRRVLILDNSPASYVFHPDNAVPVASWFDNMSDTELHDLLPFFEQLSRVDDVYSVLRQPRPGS

[13] = THP-1 cell cytotoxicity, dose response, cytotoxicity control for Vif-APOBEC3G degradation inhibitor project, THP-1 cells (AID 1117359); assay type: functional; settings: Human immunodeficiency virus 1, THP-1
[14] = molecular target: T1, Trace amine-associated receptor 1; assay: Counterscreen for antagonists of the human trace amine associated receptor 1 (hTAAR1): Fluorescence-based cell-based high throughput dose response assay to identify TAAR1 Agonists.; assay type: functional
[15] = molecular target: T1, Trace amine-associated receptor 1; assay: Fluorescence-based cell-based high throughput dose response assay to identify antagonists of the human trace amine associated receptor 1 (TAAR1).; assay type: functional
[16] = Counterscreen for antagonists of the human trace amine associated receptor 1 (hTAAR1): Fluorescence-based cell-based high throughput dose response assay to identify nonselective Ga16 antagonists.; assay type: functional
[17] = Counterscreen for […] of the human trace amine associated receptor 1 (TAAR1): Fluorescence-based cell-based high throughput dose response assay to identify nonselective Ga16 agonists.; assay type: functional

Chain of DNA (cytosine-5)-methyltransferase 1 (P26358 whole entry, the tested form may be a part): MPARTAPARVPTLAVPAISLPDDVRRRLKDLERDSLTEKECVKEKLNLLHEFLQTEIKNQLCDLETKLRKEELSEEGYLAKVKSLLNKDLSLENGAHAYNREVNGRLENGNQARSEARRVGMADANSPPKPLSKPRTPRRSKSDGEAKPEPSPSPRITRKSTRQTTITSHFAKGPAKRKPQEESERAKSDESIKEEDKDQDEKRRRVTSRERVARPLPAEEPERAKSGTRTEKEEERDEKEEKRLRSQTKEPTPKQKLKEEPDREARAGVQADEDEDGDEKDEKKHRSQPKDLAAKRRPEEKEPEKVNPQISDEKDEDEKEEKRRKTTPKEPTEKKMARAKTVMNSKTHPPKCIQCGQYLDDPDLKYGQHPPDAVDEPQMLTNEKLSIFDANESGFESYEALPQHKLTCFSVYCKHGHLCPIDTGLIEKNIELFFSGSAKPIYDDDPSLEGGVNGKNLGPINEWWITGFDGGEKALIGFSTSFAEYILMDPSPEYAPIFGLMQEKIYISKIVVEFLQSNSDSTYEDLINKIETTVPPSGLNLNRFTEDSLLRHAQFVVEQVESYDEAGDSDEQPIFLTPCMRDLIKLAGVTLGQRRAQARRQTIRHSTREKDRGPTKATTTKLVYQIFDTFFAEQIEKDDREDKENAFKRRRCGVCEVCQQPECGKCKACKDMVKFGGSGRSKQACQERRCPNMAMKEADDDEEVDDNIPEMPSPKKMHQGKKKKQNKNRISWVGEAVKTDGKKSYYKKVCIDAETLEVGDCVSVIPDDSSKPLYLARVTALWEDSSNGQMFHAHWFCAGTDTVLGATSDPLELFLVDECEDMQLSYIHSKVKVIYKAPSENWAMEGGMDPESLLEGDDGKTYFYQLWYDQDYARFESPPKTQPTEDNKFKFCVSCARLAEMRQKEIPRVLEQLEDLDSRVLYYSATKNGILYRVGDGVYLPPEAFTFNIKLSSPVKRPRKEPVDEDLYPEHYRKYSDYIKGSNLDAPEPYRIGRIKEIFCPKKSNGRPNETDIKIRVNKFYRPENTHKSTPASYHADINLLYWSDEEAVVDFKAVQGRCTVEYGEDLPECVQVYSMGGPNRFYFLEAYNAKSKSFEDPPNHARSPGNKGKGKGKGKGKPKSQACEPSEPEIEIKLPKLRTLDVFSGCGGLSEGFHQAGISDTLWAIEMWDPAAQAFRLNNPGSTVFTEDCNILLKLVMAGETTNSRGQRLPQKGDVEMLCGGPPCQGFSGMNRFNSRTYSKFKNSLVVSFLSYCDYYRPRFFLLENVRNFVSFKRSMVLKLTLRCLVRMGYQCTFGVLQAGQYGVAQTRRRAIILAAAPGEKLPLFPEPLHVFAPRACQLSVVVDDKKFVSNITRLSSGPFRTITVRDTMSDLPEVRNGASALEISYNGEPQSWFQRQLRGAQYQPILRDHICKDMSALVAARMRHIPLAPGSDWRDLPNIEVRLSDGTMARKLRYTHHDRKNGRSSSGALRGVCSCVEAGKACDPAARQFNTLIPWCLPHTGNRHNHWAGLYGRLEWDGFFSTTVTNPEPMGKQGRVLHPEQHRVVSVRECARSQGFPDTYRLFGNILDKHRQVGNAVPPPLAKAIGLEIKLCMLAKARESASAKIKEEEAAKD
Chain of 5-hydroxytryptamine receptor 2A (P35363 whole entry): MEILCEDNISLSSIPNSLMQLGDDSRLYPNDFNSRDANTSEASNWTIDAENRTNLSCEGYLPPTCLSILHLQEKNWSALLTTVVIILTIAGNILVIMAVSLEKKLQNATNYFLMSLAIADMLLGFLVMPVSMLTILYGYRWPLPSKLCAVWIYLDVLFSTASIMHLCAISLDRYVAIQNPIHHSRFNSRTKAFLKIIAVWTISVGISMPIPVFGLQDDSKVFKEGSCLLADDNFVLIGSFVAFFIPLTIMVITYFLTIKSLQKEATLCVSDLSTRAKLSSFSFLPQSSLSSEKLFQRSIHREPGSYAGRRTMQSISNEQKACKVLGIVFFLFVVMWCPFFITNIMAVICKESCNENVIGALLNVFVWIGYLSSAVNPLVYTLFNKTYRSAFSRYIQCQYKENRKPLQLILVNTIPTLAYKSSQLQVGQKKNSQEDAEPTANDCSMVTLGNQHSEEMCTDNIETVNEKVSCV
Chain of Genome polyprotein (P29990 2492-3391 limits assumed): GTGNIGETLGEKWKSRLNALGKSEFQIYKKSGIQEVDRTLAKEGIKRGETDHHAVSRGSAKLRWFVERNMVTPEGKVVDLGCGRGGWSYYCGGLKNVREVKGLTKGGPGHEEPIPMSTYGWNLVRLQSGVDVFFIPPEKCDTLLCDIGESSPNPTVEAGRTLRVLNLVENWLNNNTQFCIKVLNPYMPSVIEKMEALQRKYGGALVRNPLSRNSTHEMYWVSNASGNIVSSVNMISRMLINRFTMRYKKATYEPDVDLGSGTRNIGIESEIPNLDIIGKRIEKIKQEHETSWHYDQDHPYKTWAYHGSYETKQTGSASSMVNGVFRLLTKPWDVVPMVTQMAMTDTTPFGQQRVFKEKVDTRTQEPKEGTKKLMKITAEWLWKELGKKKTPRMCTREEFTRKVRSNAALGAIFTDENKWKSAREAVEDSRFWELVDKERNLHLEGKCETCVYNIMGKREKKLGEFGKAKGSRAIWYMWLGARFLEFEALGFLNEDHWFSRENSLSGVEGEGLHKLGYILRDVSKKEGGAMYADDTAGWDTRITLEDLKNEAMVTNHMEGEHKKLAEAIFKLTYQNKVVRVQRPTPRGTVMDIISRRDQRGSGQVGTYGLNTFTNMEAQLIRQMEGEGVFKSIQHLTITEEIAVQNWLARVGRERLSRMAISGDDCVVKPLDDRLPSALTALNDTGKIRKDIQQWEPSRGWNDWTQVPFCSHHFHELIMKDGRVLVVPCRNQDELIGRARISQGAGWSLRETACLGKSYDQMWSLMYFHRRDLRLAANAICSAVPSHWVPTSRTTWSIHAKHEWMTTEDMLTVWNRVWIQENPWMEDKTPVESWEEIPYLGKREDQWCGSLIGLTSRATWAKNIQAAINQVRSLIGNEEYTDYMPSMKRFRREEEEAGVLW
Chain of Mu-type opioid receptor (P35372 whole entry): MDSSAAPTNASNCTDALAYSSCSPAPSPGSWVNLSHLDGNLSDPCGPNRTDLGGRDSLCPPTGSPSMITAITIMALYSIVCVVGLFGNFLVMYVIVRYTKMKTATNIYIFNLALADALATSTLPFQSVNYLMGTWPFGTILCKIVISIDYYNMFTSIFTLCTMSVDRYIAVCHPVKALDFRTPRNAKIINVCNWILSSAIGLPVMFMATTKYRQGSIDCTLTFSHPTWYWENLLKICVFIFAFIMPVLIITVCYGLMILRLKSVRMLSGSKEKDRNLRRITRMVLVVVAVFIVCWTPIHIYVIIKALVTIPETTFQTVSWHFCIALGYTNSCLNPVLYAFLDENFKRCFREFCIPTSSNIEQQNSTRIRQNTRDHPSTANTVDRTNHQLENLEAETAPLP
Chain of Photoreceptor-specific nuclear receptor (Q9Y5X4 whole entry, the tested form may be a part): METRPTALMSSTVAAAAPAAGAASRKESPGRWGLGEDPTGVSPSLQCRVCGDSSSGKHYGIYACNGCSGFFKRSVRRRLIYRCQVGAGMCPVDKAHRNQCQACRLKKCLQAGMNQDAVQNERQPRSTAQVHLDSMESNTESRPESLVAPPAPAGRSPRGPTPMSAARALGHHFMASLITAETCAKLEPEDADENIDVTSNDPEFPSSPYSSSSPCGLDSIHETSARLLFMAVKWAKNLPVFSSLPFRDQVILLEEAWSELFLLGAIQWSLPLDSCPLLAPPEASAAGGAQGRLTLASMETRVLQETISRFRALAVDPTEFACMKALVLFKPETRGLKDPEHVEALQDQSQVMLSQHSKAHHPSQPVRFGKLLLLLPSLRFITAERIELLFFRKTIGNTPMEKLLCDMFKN
Chain of Glucose-6-phosphate 1-dehydrogenase (P11413 whole entry): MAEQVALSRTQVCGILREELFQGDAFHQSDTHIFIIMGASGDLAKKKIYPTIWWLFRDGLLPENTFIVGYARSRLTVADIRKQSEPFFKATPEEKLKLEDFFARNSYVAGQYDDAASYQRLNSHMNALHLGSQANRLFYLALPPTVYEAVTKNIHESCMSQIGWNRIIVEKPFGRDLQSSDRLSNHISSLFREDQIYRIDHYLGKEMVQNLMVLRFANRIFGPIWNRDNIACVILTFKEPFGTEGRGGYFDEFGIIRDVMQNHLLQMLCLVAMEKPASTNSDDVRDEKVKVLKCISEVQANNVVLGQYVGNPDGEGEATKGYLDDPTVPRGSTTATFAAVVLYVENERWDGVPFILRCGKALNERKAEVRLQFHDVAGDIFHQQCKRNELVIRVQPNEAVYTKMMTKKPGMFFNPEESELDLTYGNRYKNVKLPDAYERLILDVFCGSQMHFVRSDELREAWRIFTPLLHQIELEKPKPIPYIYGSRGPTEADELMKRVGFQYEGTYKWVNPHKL

Structure (SMILES): COc1cc(C(=O)CCN2CCC(c3ccccc3)C2)cc(OC)c1OC (stereo not given)
- CC50 [1]: > 40 µM (active)
- EC50 [2]: 0.242 µM (active)
- EC50 (cells [3]): > 29.9 µM (inactive)
- IC50 [4]: 2.35 µM (active)
- IC50 (cells [5]): > 29.9 µM (inactive)

Structure (SMILES): COc1cccc(NC(=O)c2ccc(CN3CCN(c4ccccc4)CC3)cc2)c1
- EC50 (Mu-type opioid receptor): 92.5 µM (inactive)
- EC50 [6]: 4.28 µM (active)

Structure (SMILES): CC(C)c1cc2c(c(O)c1O)[C@@]13CCCC(C)(C)C1CC2OC3=O (stereo not given in full)
- EC50 [7]: 71.2 µM (active)
- IC50 (Genome polyprotein): 84.4 µM (active)
- EC50 [8]: > 60 µM (not active)
- EC50 (H4): > 120 µM (not active)
- IC50 [9]: 2.59 µM (active)
- IC50 [10]: > 80 µM (inactive)

Structure (SMILES): COc1ccc(NC(=O)CN(C)C(=O)c2cc(-c3ccco3)nc3ccccc23)cc1
- IC50 [11]: 6.24 µM (active)
- IC50 [12]: 2.55 µM (active)
- CC50 [13]: > 40 µM (active)

Structure (SMILES): COc1cc(NC(=O)c2cc3ccccc3o2)c(OC)cc1Cl
- EC50 [14]: > 29.9 µM (inactive)
- IC50 [15]: 3.98 µM (active)
- IC50 [16]: > 29.9 µM (inactive)
- EC50 [17]: > 29.9 µM (inactive)
